Results on 6 compounds are retold here after patent publication US7138493B1, “ATP-binding cassette protein responsible for cytotoxin resistance” (The United States of America as represented by the …, priority 1998, dated 2006).

In experiment [1] the test system is cells that overexpress MXR1. Description: Drug resistance of cells that overexpress MXR1. In kind it is cell-based. From the text:
These include mitoxantrone, several anthracyclines, rhodamine, daunomycin, SN-38 (the active metabolite of CPT-11), topotecan, and bisantrene. To identify compounds that can reverse the effect of ABCP overexpression, the concentration of drug that inhibits the proliferation of resistant cells by 50% (IC50) can be measured by an assay in the presence and absence of putative inhibitors. Compounds that cause a significant decrease in the IC50 will represent inhibitors and be characterized further.
These include mitoxantrone, several anthracyclines, rhodamine, daunomycin, SN-38 (the active metabolite of CPT-11), topotecan, and bisantrene. To identify compounds that can reverse the effect of MXR1 overexpression, the concentration of drug that inhibits the proliferation of resistant cells by 50% (IC50) will be measured in the presence and absence of putative inhibitors. Compounds that cause a significant decrease in the IC50 will represent inhibitors and be characterized further. For example, S1-M1-80 cells can be incubated in media containing 30 micromolar (IC10) of mitoxantrone and the proliferation of the cells measured by sulforhodamine staining after 96 hours with and without the addition of various potential inhibitors, as a screening assay. Next, for compounds that have potential activity, a formal calculation of the IC50 can be made by incubating the cells in a range of concentrations, diluting 3-fold from 3 mM, again, with and without the inhibitor in question. […] In the absence of a reversal agent, the IC50 is 100 micromolar for the S1M1-80 cells. Compounds that lower the IC50 for mitoxantrone can be tested for their ability to also lower the IC50 for other MXR1-transporting drugs such as adriamycin, topotecan, or bisantrene.

The next experiment relates to S1-M1-80 cells. In words: Proliferation of mitoxantrone resistant cells measured by sulforhodamine staining. The format is cell-based, human. Here is the method: The cells are then contacted with a toxic chemotherapy drug, such as mitoxantrone or daunomycin, in an amount that permits cell survival due to the resistance conferred by the ATP-binding cassette protein. The amount used is preferably from about 30 μM to about 3 mM. The cells are exposed to the drug for a time that is preferably from about 48 hours to about 96 hours. Cell growth is measured for these cells based on sulforhodamine staining measurement. Alternatively, cell growth can be monitored by vital stains, metabolite measurements or counting cell divisions.
One specific way to measure cell viability is by a calorimetric assay (Skehan et al., Natl. Cancer Inst. 82: 1117–1121 (1990)). […] The number of viable cells can then be determined by measuring the OD at 570 nm. Alternatively, viability of cells can be measured by counting cells with a cell counter or by incorporation of tritiated thymidine.
These include mitoxantrone, several anthracyclines, rhodamine, daunomycin, SN-38 (the active metabolite of CPT-11), topotecan, and bisantrene. […] For example, S1-M1-80 cells can be incubated in media containing 30 micromolar (IC10) of mitoxantrone and the proliferation of the cells measured by sulforhodamine staining after 96 hours with and without the addition of various potential inhibitors, as a screening assay. […]

`CCc1c2c(nc3ccc(O)cc13)-c1cc3c(c(=O)n1C2)COC(=O)[C@]3(O)CC` [SN-38]: in experiment [1], the “resistance of cells that overexpress MXR1 to the drug” value (shortened to “resistance”) is “resistant”.

On to `C(=N\NC1=NCCN1)/c1c2ccccc2c(/C=N/NC2=NCCN2)c2ccccc12` [bisantrene], for which the “resistance” value in experiment [1] is “resistant”.

As to `COc1cccc2c1C(=O)c1c(O)c3c(c(O)c1C2=O)C[C@@](O)(C(C)=O)C[C@@H]3O[C@H]1C[C@H](N)[C@H](O)[C@H](C)O1` [daunomycin], the “resistance” value in experiment [1] was “resistant”.

What is called IC10 is the concentration at which the effect reaches the 10% level. Read a high IC10 as weaker potency. Consider `O=C1c2c(O)ccc(O)c2C(=O)c2c(NCCNCCO)ccc(NCCNCCO)c21` [mitoxantrone], for which the IC50 in the experiment with S1-M1-80 cells (Homo sapiens, S1-M1-80, S1M1-80 cells, in the absence of a reversal agent, read-out: IC50 (concentration of drug that inhibits the proliferation of resistant cells by 50%)) was 100 µM. The IC10 in the experiment on S1-M1-80 cells (S1-M1-80 cells, concentration in media for the screening assay, 96 hours) amounted to 30 µM. Besides, the “resistance” value in experiment [1] was “resistant”.

Regarding `CC[C@@]1(O)C(=O)OCc2c1cc1n(c2=O)Cc2cc3c(CN(C)C)c(O)ccc3nc2-1` [topotecan], in experiment [1], the “resistance” value is reported as “resistant”.

Consider rhodamine, for which the “resistance” value in experiment [1] was “resistant”.
